According to patent US20180036292A1, “PHARMACEUTICAL COMPOSITIONS FOR THE TREATMENT OF BACTERIAL INFECTIONS” (WOCKHARDT LIMITED, priority 2016, published 2018):
Read-outs that look alike come from different tables or passages of the source.

Key:
[1] = Study 3: concentrations in plasma, epithelial lining fluid (ELF) and alveolar macrophages (AM) after 800 mg once daily for three days; format: in vivo, human; conditions: for Kp / Kp at 3 h / Kp at 6 h / Kp at 9 h / Kp at 12 h / Kp at 24 h / Kp at 48 h: both sexes, human; for Kp: oral, range over the 48-hour period after drug administration, 800 mg once daily for 3 days; for Kp at 3 h / Kp at 6 h / Kp at 9 h / Kp at 12 h / Kp at 24 h / Kp at 48 h: healthy subjects, 800 mg oral once daily for 3 days, mean ± SD; for Kp at 3 h: sampling time 3 hr after third dose; for Kp at 6 h: sampling time 6 hr after third dose; for Kp at 9 h: sampling time 9 hr after third dose; for Kp at 12 h: sampling time 12 hr after third dose; for Kp at 24 h: sampling time 24 hr after third dose; for Kp at 48 h: sampling time 48 hr after third dose
Procedure: Healthy male and female subjects 18 years of age or older who met the study entry criteria were enrolled into the pharmacokinetic study. Each subject received 800 mg (2 tablets of 400 mg) of compound of Formula (I) administered once daily for three days, with 240 ml of drinking water at a consistent time within two hours after a standard meal and direct observation at the study site. Blood samples were collected to measure concentration of compound of Formula (I) in plasma at 3, 6, 9, 12, 24, and 48 hours following the third dose of compound of Formula (I). Similarly, bronchoscopy was done to measure concentration of compound of Formula (I) in epithelial lining fluid (ELF) and alveolar macrophages (AM) 3, 6, 9, 12, 24, and 48 hours following the third dose of compound of Formula (I). The mean (±SD) concentrations of compound of Formula (I) in plasma (total), ELF, and AM at the bronchopulmonary sampling times are illustrated in FIG. 4. […] Table 1 gives the mean (±SD) ratios of compound of Formula (I) in ELF or AM to the simultaneous total plasma concentrations. The mean ratios of ELF and AM to simultaneous total plasma concentration for compound of Formula (I) during the 48-hour period after drug administration ranged from 10 to 30 and 270 to 800, respectively.

[2] = Study 2: Phase 1 multiple ascending dose, drug concentrations in plasma and polymorphonuclear leukocytes (PMN); format: in vivo, human; conditions: healthy subjects, 600, 800 and 1000 mg once daily day 1 to day 7; sampling day 1 and day 7
Procedure: A Phase 1, randomised, double-blind, single center, placebo controlled sequential cohort study in a maximum of 3 cohort of 10 healthy male and/or female subject each was conducted. Subjects received ascending multiple doses of compound of Formula (I) (600, 800 and 1000 mg) or matching placebo once daily on day 1 to day 7. Blood sampling was performed on day 1 and day 7 to determine the drug concentrations in plasma and polymorphonuclear leukocytes (PMN) (FIG. 2 and FIG. 3). […] Blood sampling was also undertaken at intermittent days to determine the number of doses required to attain the steady state.

[3] = alveolar macrophages (AM) / plasma (total), read-out: AM to Plasma (Total) concentration ratio
[4] = epithelial lining fluid (ELF) / plasma (total), read-out: ELF to Plasma (Total) concentration ratio

CC[C@@H]1OC(=O)[C@H](C)C(=O)[C@H](C)[C@@H](OC2O[C@H](C)C[C@H](N(C)C)[C@H]2O)[C@](C)(OC)C[C@@H](C)C(=O)[C@H](C)[C@H]2[C@H](/C(N)=N/O[C@@H](C)c3nnc(-c4ccccn4)s3)C(=O)O[C@@]21C (stereo partly shown) [compound of Formula (I)]
Kp ([1]; alveolar macrophages (AM) / plasma (total), read-out: mean ratio of AM to simultaneous total plasma concentration): 270 to 800 | Kp at 3 h [1, 3]: 274 ± 187 | Kp at 6 h [1, 3]: 378 ± 172 | Kp at 9 h [1, 3]: 383 ± 260 | Kp at 12 h [1, 3]: 791 ± 614 | Kp at 24 h [1, 3]: 486 ± 193 | Kp at 48 h [1, 3]: 428 ± 189 | Kp ([1]; epithelial lining fluid (ELF) / plasma (total), read-out: mean ratio of ELF to simultaneous total plasma concentration): 10 to 30 | Kp at 3 h [1, 4]: 17 ± 12 | Kp at 6 h [1, 4]: 14.5 ± 8.8 | Kp at 9 h [1, 4]: 10.4 ± 6.5 | Kp at 12 h [1, 4]: 12.4 ± 9.3 | Kp at 24 h [1, 4]: 17.6 ± 6.2 | Kp at 48 h [1, 4]: 27.2 ± 6.5 | concentrations in ELF and AM compared with simultaneous plasma concentrations ([1]; oral 800 mg, throughout the 48-hour period after 3 days of once-daily dosing): significantly higher in ELF and AM than simultaneous plasma concentrations | accumulation in polymorphonuclear leukocytes (PMN) in comparison to plasma [2]: accumulated more in polymorphonuclear leukocytes (PMN) in comparison to plasma
